Data published in the supplement of paper PMC13380429.

Experiments:
Details in all cases: 72 h
[1] = system: Caco-2; assay: cell viability relative to DMSO; higher = less toxic
[2] = system: Calu-3; assay: as above
[3] = system: HepG2; assay: as above
[4] = system: U2OS; assay: as above
[5] = system: Caco-2; assay: relative viability EC50 (midpoint between 100% and the lowest measured viability); higher = less toxic
[6] = system: Calu-3; assay: as above
[7] = system: HepG2; assay: as above
[8] = system: U2OS; assay: as above
[9] = system: Caco-2; assay: drug sensitivity score (DSS) for viability; higher = more toxic; extreme values may be limits of the assay
[10] = system: Calu-3; assay: as above
[11] = system: HepG2; assay: as above
[12] = system: U2OS; assay: as above
[13] = system: Vero E6; assay: cell viability relative to DMSO; higher = less toxic
[14] = system: Vero E6; assay: drug sensitivity score (DSS) for viability; higher = more toxic; extreme values may be limits of the assay

Row | SMILES | cell viability ([1]; 1 nM) [%] | cell viability ([1]; 10 nM) [%] | cell viability ([1]; 100 nM) [%] | cell viability ([1]; 1000 nM) [%] | cell viability ([1]; 10000 nM) [%] | cell viability ([2]; 1 nM) [%] | cell viability ([2]; 10 nM) [%] | cell viability ([2]; 100 nM) [%] | cell viability ([2]; 1000 nM) [%] | cell viability ([2]; 10000 nM) [%] | cell viability ([3]; 1 nM) [%] | cell viability ([3]; 10 nM) [%] | cell viability ([3]; 100 nM) [%] | cell viability ([3]; 1000 nM) [%] | cell viability ([3]; 10000 nM) [%] | cell viability ([4]; 1 nM) [%] | cell viability ([4]; 10 nM) [%] | cell viability ([4]; 100 nM) [%] | cell viability ([4]; 1000 nM) [%] | cell viability ([4]; 10000 nM) [%] | relative viability EC50 [5] [µM] | relative viability EC50 [6] [µM] | relative viability EC50 [7] [µM] | relative viability EC50 [8] [µM] | drug sensitivity score [9] | drug sensitivity score [10] | drug sensitivity score [11] | drug sensitivity score [12] | cell viability ([13]; 1 nM) [%] | cell viability ([13]; 10 nM) [%] | cell viability ([13]; 100 nM) [%] | cell viability ([13]; 1000 nM) [%] | cell viability ([13]; 10000 nM) [%] | drug sensitivity score [14]
1 | CN1CCN(c2cccc3[nH]c(=O)oc23)CC1 [pardoprunox] | 102 | 101 | 96.4 | 90.6 | 100 | 95.8 | 93.2 | 102 | 107 | 99.1 | 90.7 | 105 | 89.1 | 99.2 | 97.3 | 106 | 99.3 | 102 | 95.3 | 101 | > 10 | > 10 | > 10 | > 10 | 0 | 0 | 0 | 0 | – | – | – | – | – | –
2 | CCN1C[C@]2(OC(=O)c3ccccc3NC(C)=O)CC[C@H](OC)[C@@]34[C@@H]2C[C@@H]([C@@H]13)[C@@]1(O)C[C@H](OC)[C@H]2C[C@@H]4[C@]1(O)[C@H]2OC [lappaconite] | 87.7 | 99 | 85.5 | 95.2 | 89.8 | 103 | 86.1 | 94.1 | 102 | 106 | 101 | 97.1 | 103 | 100 | 107 | 103 | 103 | 98.1 | 99.1 | 94.4 | > 10 | > 10 | > 10 | > 10 | 0 | 0 | 0 | 0 | – | – | – | – | – | –
3 | CC(=O)N[C@@H](CC(C)C)C(=O)O [acetyl-l-leucine] | 95.7 | 103 | 85 | 80.3 | 96.6 | – | – | – | – | – | 95.8 | 99.2 | 98.4 | 88.3 | 94.7 | 101 | 99.9 | 95.2 | 101 | 96.2 | > 10 | – | > 10 | > 10 | 4.1 | – | 0 | 0 | – | – | – | – | – | –
4 | Cn1cc(-c2ccncc2)c(-c2ccc(OCc3ccc4ccccc4n3)cc2)n1 | 91.1 | 106 | 90.5 | 106 | 67.2 | 104 | 105 | 103 | 98.9 | 77.1 | 105 | 99.2 | 108 | 95.6 | 91.5 | 94 | 101 | 96.7 | 94.6 | 87.5 | – | > 10 | > 10 | > 10 | 1.2 | 0.9 | 0 | 0 | – | – | – | – | – | –
5 | CCC(=O)NC[C@@H]1C[C@H]1c1cccc2c1CCO2 [tasimelteon] | 97.9 | 92.1 | 90.6 | 98 | 99.4 | 91.1 | 103 | 91.9 | 103 | 103 | 108 | 107 | 102 | 106 | 98.5 | 92.8 | 103 | 93.9 | 93.6 | 102 | > 10 | > 10 | > 10 | > 10 | 0 | 0 | 0 | 0 | – | – | – | – | – | –
6 | O=c1ccc2ccccc2o1 [coumarin] | 96.5 | 97.6 | 99.2 | 95.9 | 95.5 | 97.7 | 90.9 | 95.6 | 105 | 88.6 | 91.8 | 107 | 106 | 96.7 | 111 | 100 | 98.1 | 96.1 | 99.1 | 98.1 | > 10 | > 10 | > 10 | > 10 | 0 | 0 | 0 | 0 | – | – | – | – | – | –
7 | C=C(C)[C@H]1CN[C@H](C(=O)O)[C@H]1CC(=O)O [kainic-acid] | 97.5 | 95.7 | 96.7 | 104 | 96.8 | 93.4 | 88.2 | 93.5 | 90.3 | 98.3 | 106 | 105 | 110 | 102 | 93.7 | 99.7 | 99.4 | 101 | 99.8 | 95.6 | > 10 | > 10 | > 10 | > 10 | 0 | 0 | 0 | 0 | – | – | – | – | – | –
8 | CN1[C@@H]2CC[C@H]1C[C@@H](OC(=O)[C@H](CO)c1ccccc1)C2 [hyoscyamine] | 103 | 99.8 | 95 | 94.2 | 89.6 | 103 | 91.6 | 99.9 | 97.2 | 99.4 | 111 | 98.2 | 106 | 89.3 | 104 | 98.9 | 101 | 97.8 | 101 | 99.9 | > 10 | > 10 | > 10 | > 10 | 0 | 0 | 0 | 0 | – | – | – | – | – | –
9 | CN(CC(=O)O)C(=N)N [creatine] | – | – | – | – | – | – | – | – | – | – | – | – | – | – | – | – | – | – | – | – | – | – | – | – | – | 0 | 0 | 0 | – | – | – | – | – | –
10 | Cc1nc(N)sc1CCN [amthamine] | 96.3 | 95.3 | 87.4 | 92.4 | 96.5 | 98.2 | 97.3 | 105 | 109 | 109 | 104 | 105 | 106 | 122 | 99.4 | – | – | – | – | – | > 10 | > 10 | > 10 | – | 0 | 0 | 0 | – | – | – | – | – | – | –
11 | N#C/C(=C\c1ccc(O)c(O)c1)C(=O)NCCCCc1ccccc1 [AG-556] | 94 | 94.2 | 101 | 101 | 50.1 | 95.7 | 101 | 102 | 110 | 98.7 | 93.3 | 101 | 97.8 | 108 | 71.1 | 98.5 | 99 | 94.7 | 99 | 75.8 | – | > 10 | – | > 10 | 2.5 | 0 | 0.9 | 1 | 95.8 | 95.6 | 100 | 95.9 | 62.5 | 2.5
12 | O=c1[nH]c(=O)n([C@H]2C[C@H](O)[C@@H](CO)O2)cc1C(F)(F)F [trifluridine] | 93.3 | 93.9 | 98.4 | 94 | 81.7 | 106 | 121 | 103 | 100 | 97.7 | 95.9 | 93.2 | 104 | 64.8 | 36.1 | – | – | – | – | – | > 10 | > 10 | 0.923 | – | 0.9 | 0 | 7.8 | – | 101 | 105 | 108 | 102 | 69.5 | 1.2
13 | O=C(NCC(=O)N1CCCC1)Nc1ccc2cnccc2c1 [SGC-707] | 98.1 | 97 | 95.7 | 100 | 93.1 | 94.2 | 95.8 | 105 | 86.2 | 110 | 93.6 | 117 | 98.4 | 103 | 97.3 | 99.2 | 93 | 103 | 97.3 | 96.8 | > 10 | > 10 | > 10 | > 10 | 0 | 0 | 0 | 0 | – | – | – | – | – | –
